In assay [1] the target is T1, BRD4 (BDI_K57-E168) (Homo sapiens, UniProt O60885).
T1 construct: BD1: amino acids K57-E168; made in house
The assay is described as follows: TR-FRET bromodomain binding assay, BRD4 first bromodomain. Conditions: His-tagged BD1, 100 nM Alexa647 probe; Ki calculated from IC50; dilution protocol A-G. How it is done: (§1) A time-resolved fluorescence resonance energy transfer (TR-FRET) assay was used to determine the affinities of compounds of the Examples listed in Table 1 for each bromodomain of BRD4. His-tagged first (BD1: amino acids K57-E168) and second (BD2: amino acids E352-E168) bromodomains of BRD4 were expressed and purified. An Alexa647-labeled BET-inhibitor was used as the fluorescent probe in the assay.
(§2) Compound dilution series were prepared in DMSO via an approximately 3-fold serial dilution from one of the following: • Assay method A: 2.5 mM-800 nM • Assay method B: 2.5 mM-797 nM • Assay method C: 1250 μM-21 nM • Assay method D: 500 μM-8.5 nM • Assay method E: 0.47 mM to 7.8 nM • Assay method F: 250 μM-4.2 nM • Assay method G: 0.047 mM to 0.78 nM or 5-fold serial dilution from Assay Method A or Assay Method B.
(§3) For Assay methods A, C, D, and F: Compounds were then diluted 6:100 in assay buffer (20 mM Sodium Phosphate, pH 6.0, 50 mM NaCl, 1 mM Ethylenediaminetetraacetic acid, 0.01% Triton X-100, 1 mM DL-Dithiothreitol) to yield 3× working solutions. Six microliters (μL) of the working solution was then transferred to white, low-volume assay plates (Costar #3673). A 1.5× assay mixture containing His-tagged bromodomain, Europium-conjugated anti-His antibody (Invitrogen PV5596) and the Alexa-647-conjugated probe molecule was also prepared. Twelve μL of this solution were added to the assay plate to reach a final volume of 18 μL.
(§4) For Assay methods B, E, and G: Compound dilutions were added directly into white, low-volume assay plates (Perkin Elmer Proxiplate 384 Plus#6008280) using a Labcyte Echo in conjunction with Labcyte Access and Thermo Multidrop CombinL robotics. Compounds were then suspended in eight microliters (μL) of assay buffer (20 mM Sodium Phosphate, pH 6.0, 50 mM NaCl, 1 mM Ethylenediaminetetraacetic acid disodium salt dihydrate, 0.01% Triton X-100, 1 mM DL-Dithiothreitol) containing His-tagged bromodomain, Europium-conjugated anti-His antibody (Invitrogen PV5596) and Alexa-647-conjugated probe.
(§5) The final concentration of 1× assay mixture for assay methods A, B, C, D, E, F, and G contains 2% DMSO, 8 nM His-tagged bromodomain, 1 nM Europium-conjugated anti-His-tag antibody and 100 nM or 30 nM probe (for BDI or BDII, respectively) and compound concentration in the range of: 50 μM-16 nM for method A, 49.02 μM-15.63 nM for method B, 25 μM-423 pM for method C, 10 μM-169 pM for method D, 9.19 μM-150 pM for method E, 5 μM-85 pM for method F, and 0.92 μM-15 pM for method G.
(§6) After a one-hour equilibration at room temperature, TR-FRET ratios were determined using an Envision multilabel plate reader (Ex 340, Em 495/520).
(§7) TR-FRET data were normalized to the means of 24 no-compound controls (“high”) and 8 controls containing 1 μM un-labeled probe (“low”). Percent inhibition was plotted as a function of compound concentration and the data were fit with the 4 parameter logistic equation to obtain IC50s Inhibition constants (Ki) were calculated from the IC50s, probe Kd and probe concentration. Typical Z′ values were between 0.65 and 0.75. The minimum significant ratio was determined to evaluate assay reproducibility (Eastwood et al., (2006) J Biomol Screen, 11: 253-261). The MSR was determined to be 2.03 for BDI and 1.93 for BDII, and a moving MSR (last six run MSR overtime) for both BDI and BDII was typically <3.

Assay [2] deals with T2, BRD4 (BDII_E352-M457) (Homo sapiens, UniProt O60885).
T2 construct: made in house
The assay is described as follows: TR-FRET bromodomain binding assay, BRD4 second bromodomain. The method, then: as §1, §2, §3, §4, §5, §6, §7

Assay [3] relates to breast cancer cell line MX-1. The assay is described as follows: MX-1 cell line proliferation assay (3-day, Cell Titer Glo). The class given is cell-based. To be noted: Homo sapiens, MX1, MX-1 cells, 72 h, top concentration 3 μM, read-out: Cellular proliferation: EC50. How it is done:
The impact of compounds of the Examples on cancer cell proliferation was determined using the breast cancer cell line MX-1 (ATCC) in a 3-day proliferation assay and the data are reported in Table 1. MX-1 cells were maintained in RPMI 1640 medium (Sigma) supplemented with 10% FBS at 37 C.° and an atmosphere of 5% CO2. For compound testing, MX-1 cells were plated in 96-well black bottom plates at a density of 5000 cells/well in 90 μL of culture media and incubated at 37° overnight to allow cell adhesion and spreading. Compound dilution series were prepared in DMSO via a 3-fold serial dilution from 3 mM to 0.1 μM. The DMSO dilution series were then diluted 1:100 in phosphate buffered saline, and 10 μL of the resulted solution were added to the appropriate wells of the MX-1 cell plate. The final compound concentrations in the wells were 3, 1, 0.3, 0.1, 0.03, 0.01, 0.003, 0.001, 0.0003 and 0.0001 μM.
Luminescence readings from the Cell Titer Glo assay were normalized to the DMSO treated cells and analyzed using the GraphPad Prism software with sigmoidal curve fitting to obtain EC50s. The minimum significant ratio (MSR) was determined to evaluate assay reproducibility (Eastwood et al., (2006) J Biomol Screen, 11: 253-261).
In general terms: In ATP-based viability assays light output follows the ATP content of the culture.

This is an account of results in patent US9050346B2, “Bromodomain inhibitors” (AbbVie Inc., priority 2013, dated 2015).

Regarding `Cc1[nH]c(-c2cc(F)ccc2OCC2CC2)c2cc(-c3nc(-c4cnccn4)no3)[nH]c(=O)c12` [Example 71, 1-(2-(cyclopropylmethoxy)-5-fluorophenyl)-3-methyl-6-(3-(pyrazin-2-yl)-1,2,4-oxadiazol-5-yl)-2H-pyrrolo[3,4-c]pyridin-4(5H)-one], the Ki is 38.5 nM in assay [1] and 659 nM in assay [2]. Also, the EC50 in assay [3] was found to be 204 nM.
As to `Cc1[nH]c(-c2cc(S(C)(=O)=O)ccc2Oc2ccc(F)cc2F)c2cc(C(N)=O)[nH]c(=O)c12` [Example 42, 1-[2-(2,4-difluorophenoxy)-5-(methylsulfonyl)phenyl]-3-methyl-4-oxo-4,5-dihydro-2H-pyrrolo[3,4-c]pyridine-6-carboxamide], the inhibitory constant (Ki) in assay [1] was 22.4 nM; in assay [2], 56.9 nM. Further, the EC50 in assay [3] is greater than 3000 nM.
With `Cc1[nH]c(-c2ccccc2Oc2ccccc2)c2cc(-c3nc(Cc4cccnc4)no3)[nH]c(=O)c12` [Example 66, 3-methyl-1-(2-phenoxyphenyl)-6-(3-(pyridin-3-ylmethyl)-1,2,4-oxadiazol-5-yl)-2H-pyrrolo[3,4-c]pyridin-4(5H)-one], the inhibitory constant (Ki) is 9.31 nM in assay [1] and 151 nM in assay [2]. Also, the EC50 in assay [3] is 81 nM.
Regarding `Cc1[nH]c(-c2ccccc2Oc2ccccc2)c2cc(-c3nc(-c4cccnc4)no3)[nH]c(=O)c12` [Example 60, 3-methyl-1-(2-phenoxyphenyl)-6-(3-(pyridin-3-yl)-1,2,4-oxadiazol-5-yl)-2H-pyrrolo[3,4-c]pyridin-4(5H)-one], the inhibition constant Ki in assay [1] is 13 nM; in assay [2], 116 nM. In addition, the EC50 in assay [3] was 111 nM.
For the molecule `Cc1[nH]c(-c2ccccc2Oc2ccccc2)c2cc(C(=O)NC3CCNCC3)[nH]c(=O)c12` [Example 57, 3-methyl-4-oxo-1-(2-phenoxyphenyl)-N-(piperidin-4-yl)-4,5-dihydro-2H-pyrrolo[3,4-c]pyridine-6-carboxamide], the Ki in assay [1] was 1.78 nM; in assay [2], 15.8 nM. Besides, in assay [3], the EC50 turned out to be 252 nM.
The like results for `Cc1[nH]c(-c2ccccc2Oc2ccccc2)c2cc(C(=O)NCC3CCOC3)[nH]c(=O)c12` (stereo not drawn) [Example 36, 3-methyl-4-oxo-1-(2-phenoxyphenyl)-N-(tetrahydrofuran-3-ylmethyl)-4,5-dihydro-2H-pyrrolo[3,4-c]pyridine-6-carboxamide] were, in that order, 8.83 nM, 20.9 nM and 188 nM.
With `Cc1[nH]c(-c2ccccc2Oc2ccccc2)c2cc(C(=O)N3CCN(C)CC3)[nH]c(=O)c12` [Example 16, 3-methyl-6-(4-methylpiperazine-1-carbonyl)-1-(2-phenoxyphenyl)-2H-pyrrolo[3,4-c]pyridin-4(5H)-one], the Ki was 32.7 nM in assay [1] and 170 nM in assay [2]. Moreover, in assay [3], the EC50 came out at 616 nM.
Consider `CCOC(=O)c1cc2c(-c3cc(NS(=O)(=O)CC)ccc3Oc3ccc(F)cc3F)[nH]c(C)c2c(=O)[nH]1` [Example 10, ethyl 1-(2-(2,4-difluorophenoxy)-5-(ethylsulfonamido)phenyl)-3-methyl-4-oxo-4,5-dihydro-2H-pyrrolo[3,4-c]pyridine-6-carboxylate], for which the Ki in assay [1] was 1.46 nM; in assay [2], 8.61 nM. In assay [3], the EC50 was determined as 57.4 nM.
For `CCOC(=O)c1cc2c(-c3cc(NS(C)(=O)=O)ccc3Oc3ccc(F)cc3F)[nH]c(C)c2c(=O)[nH]1` [Example 9, ethyl 1-{2-(2,4-difluorophenoxy)-5-[(methylsulfonyl)amino]phenyl}-3-methyl-4-oxo-4,5-dihydro-2H-pyrrolo[3,4-c]pyridine-6-carboxylate], the Ki is 3.41 nM in assay [1] and 29.3 nM in assay [2]. Moreover, the EC50 in assay [3] is 71.6 nM.
Consider `CCOC(=O)c1cc2c(-c3cc(CS(C)(=O)=O)ccc3Oc3ccc(F)cc3F)[nH]c(C)c2c(=O)[nH]1` [Example 68, ethyl 1-{2-(2,4-difluorophenoxy)-5-[(methylsulfonyl)methyl]phenyl}-3-methyl-4-oxo-4,5-dihydro-2H-pyrrolo[3,4-c]pyridine-6-carboxylate], for which the figures for the Ki in assay [1] and in assay [2] were 2.12 nM and 8.8 nM, respectively. In addition, in assay [3], the EC50 turned out to be 30 nM.
For `CCOC(=O)c1cc2c(-c3cc(F)ccc3OCC3CC3)[nH]c(C)c2c(=O)[nH]1` [Example 69, ethyl 1-[2-(cyclopropylmethoxy)-5-fluorophenyl]-3-methyl-4-oxo-4,5-dihydro-2H-pyrrolo[3,4-c]pyridine-6-carboxylate], the Ki is 52.2 nM in assay [1] and 416 nM in assay [2]. Also, the EC50 in assay [3] is greater than 3000 nM.
On the same counts, the results for `CCOC(=O)c1cc2c(-c3ccc(-c4cc(C)n[nH]4)cc3)[nH]c(C)c2c(=O)[nH]1` [Example 8, ethyl 3-methyl-1-[4-(3-methyl-1H-pyrazol-5-yl)phenyl]-4-oxo-4,5-dihydro-2H-pyrrolo[3,4-c]pyridine-6-carboxylate] are 95.6 nM, 615 nM and 737 nM.
As to `Cc1[nH]c(-c2ccccc2Oc2ccccc2)c2nc(-c3ccco3)[nH]c(=O)c12` [Example 88, 2-(furan-2-yl)-5-methyl-7-(2-phenoxyphenyl)-3,6-dihydro-4H-pyrrolo[3,4-d]pyrimidin-4-one], the Ki is 380 nM in assay [1] and 1620 nM in assay [2]. In addition, the EC50 in assay [3] turned out to be 761 nM.
On the same counts, the results for `Cc1[nH]c(-c2ccccc2Oc2ccc(F)cc2F)c2cc(C(N)=O)[nH]c(=O)c12` [Example 23, 1-[2-(2,4-difluorophenoxy)phenyl]-3-methyl-4-oxo-4,5-dihydro-2H-pyrrolo[3,4-c]pyridine-6-carboxamide] are 6.25 nM, 45.1 nM and 60.8 nM.
`Cc1[nH]c(-c2cc(N)ccc2Oc2ccccc2)c2cn[nH]c(=O)c12` [Example 74, 5-(5-amino-2-phenoxyphenyl)-7-methyl-2,6-dihydro-1H-pyrrolo[3,4-d]pyridazin-1-one]: the Ki in assay [1] was 1.88 nM; in assay [2] it was 18.6 nM. The EC50 in assay [3] turned out to be 78 nM.
With `CCOC(=O)c1cc2c(-c3cc(NS(C)(=O)=O)ccc3Oc3ccccc3)[nH]c(C)c2c(=O)[nH]1` [Example 5, ethyl 3-methyl-1-(5-(methylsulfonamido)-2-phenoxyphenyl)-4-oxo-4,5-dihydro-2H-pyrrolo[3,4-c]pyridine-6-carboxylate], the Ki in assay [1] was 1.44 nM; in assay [2], 9.51 nM. In addition, the EC50 in assay [3] was 47.3 nM.

In general, Ki refers to a measure of affinity in units of concentration, obtained from inhibition or displacement.
